Source: the Kinase Knowledgebase extract (Sharma et al. 2016)

Assays:
CDK2 (human) = CDK2 (human) (UniProt P24941); assay: Enzyme Assay; details: concentration not given here
EGFR (human) = EGFR (human) (UniProt P00533); details: concentration not given here
Chain of EGFR (human) (P00533 whole entry, looked up): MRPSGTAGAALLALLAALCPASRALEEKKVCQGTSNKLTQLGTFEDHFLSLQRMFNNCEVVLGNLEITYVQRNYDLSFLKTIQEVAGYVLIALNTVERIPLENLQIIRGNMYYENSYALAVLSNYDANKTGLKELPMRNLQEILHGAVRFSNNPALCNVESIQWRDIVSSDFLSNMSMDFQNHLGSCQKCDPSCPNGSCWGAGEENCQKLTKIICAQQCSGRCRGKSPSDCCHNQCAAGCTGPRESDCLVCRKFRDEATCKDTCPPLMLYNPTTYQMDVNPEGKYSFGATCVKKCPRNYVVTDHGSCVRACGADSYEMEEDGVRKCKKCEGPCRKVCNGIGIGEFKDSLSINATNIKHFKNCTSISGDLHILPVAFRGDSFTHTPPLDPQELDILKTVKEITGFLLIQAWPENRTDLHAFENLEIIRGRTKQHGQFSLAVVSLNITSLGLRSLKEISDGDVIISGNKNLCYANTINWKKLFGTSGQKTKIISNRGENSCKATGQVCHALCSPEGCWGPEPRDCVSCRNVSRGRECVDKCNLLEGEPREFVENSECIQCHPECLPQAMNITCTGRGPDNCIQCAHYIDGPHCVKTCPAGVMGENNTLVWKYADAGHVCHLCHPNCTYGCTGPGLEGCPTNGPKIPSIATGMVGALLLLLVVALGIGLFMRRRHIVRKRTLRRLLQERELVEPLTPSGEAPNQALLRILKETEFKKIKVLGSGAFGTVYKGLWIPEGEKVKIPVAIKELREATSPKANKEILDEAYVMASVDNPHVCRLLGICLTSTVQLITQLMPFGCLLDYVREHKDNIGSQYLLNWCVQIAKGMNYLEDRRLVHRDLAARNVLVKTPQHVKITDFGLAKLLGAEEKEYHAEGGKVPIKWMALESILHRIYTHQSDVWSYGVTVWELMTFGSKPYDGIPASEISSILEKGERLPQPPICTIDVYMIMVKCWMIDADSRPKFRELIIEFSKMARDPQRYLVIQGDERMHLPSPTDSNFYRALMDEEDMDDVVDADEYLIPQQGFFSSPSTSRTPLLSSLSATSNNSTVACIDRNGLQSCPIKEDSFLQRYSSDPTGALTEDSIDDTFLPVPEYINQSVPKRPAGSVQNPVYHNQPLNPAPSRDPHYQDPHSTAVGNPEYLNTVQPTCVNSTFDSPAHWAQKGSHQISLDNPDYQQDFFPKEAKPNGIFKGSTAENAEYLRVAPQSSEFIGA

## COc1ccc(C2=C(c3c[nH]c4ccccc34)C(=O)NC2=O)cc1OC
CDK2 (human)
  inhibition: 7%
EGFR (human)
  inhibition: 27%

## COc1cc(C2=C(c3c(C)[nH]c4ccccc34)C(=O)NC2=O)cc(OC)c1OC
EGFR (human)
  inhibition: 5%

## COc1ccc2[nH]c3c4c(OC)c(OC)c(OC)cc4c4c(c3c2c1)C(=O)NC4=O
EGFR (human)
  inhibition: 3%

## COc1cc2c3c(c4c5ccccc5n(C)c4c2c(OC)c1OC)C(=O)NC3=O
CDK2 (human)
  inhibition: 58%
